Test results as given in US8974834B2, “Method for producing reservoir layer for hoof treatment and reservoir layer” (Ecolab USA Inc., priority 2010, dated 2015).

Legend:
[1] = Formation of a precipitate on mixing a surfactant with aqueous polyaluminium chloride/glutaraldehyde solution; format: physicochemical; settings: mixed with aqueous solution (a) containing polyaluminium chloride and 7% glutaraldehyde
Protocol: (§1) 50 ml of an aqueous solution (a) containing approximately 31.5 weight % polyaluminium chloride (dialuminum chloride pentahydroxide), 7% glutaraldehyde was mixed with 10 g Texapon®NSO (C12-C14 alkyl ether sulfate with 2 mole EO). Before mixing the aluminium content of the aqueous solution (a) was about 9.5 weight %. […] The white precipitate was analyzed with respect to its contents of glutaraldehyde, Texapon®NSO. The content of polyaluminium chloride was analyzed by the content of Al-ions by XRF.
50 ml of an aqueous solution (a) containing 10% polyaluminium chloride and 7% glutaraldehyde was mixed with 50 ml of an aqueous solution (b) containing 10 weight % dodecylbenzenesulphonic acid. Before mixing the aluminium content of the aqueous solution (a) was about 3 weight %.
50 ml of an aqueous solution (a) containing 10% polyaluminium chloride, 7% glutaraldehyde was mixed with 50 ml of an aqueous solution (b) containing 10 weight % N-alkyl(C12-C16)-N-benzyl-N,N-dimethylammonium chloride (Barquat®DM-50).

[2] = Chemical analysis of the precipitate (contents of glutaraldehyde and Texapon NSO; Al by XRF); format: physicochemical; settings: white precipitate from 50 ml solution (a) (31.5 weight % polyaluminium chloride, 7% glutaraldehyde) mixed with 10 g Texapon NSO
Protocol: as §1

Row | formation of a precipitate upon mixing [1] | quantified values (content in the precipitate) [2] [%] | SMILES
1 | white solid immediately was formed |  | CCCCCCCCCCCCc1ccc(S(=O)(=O)O)cc1 [dodecylbenzenesulphonic acid]
2 |  | 3.7 | O=CCCCC=O [glutaraldehyde]
